What was measured:
K-Ras WT = target: T1, K-Ras WT (Homo sapiens, UniProt P01116); assay: HTRF resonance energy transfer assay, K-Ras WT / SOS1 interaction; type: biochemical; details: HTRF assay of Example 5; read-out: IC50 against K-Ras WT
T1 construct: made in house; host or cells: E. coli BL21 (DE3)
How it was run: (§1)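 Read-out: HTRF 665/620 nm ratio (excitation 337 nm) after roughly 10 min or longer incubation, used to derive IC50. Donor anti-GST-Eu on GST-K-Ras; acceptor anti-6His-XL665 on His-hSOS1. Duplicate dose series from 10 μM down to 0.01 μM.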

A549 cells = assay: Ras cellular assay, growth of cells with K-Ras G12S mutation (CellTiter-Glo); type: cell-based; details: Homo sapiens, cell growth, Example 9, G12S mutation, read-out: IC50 against A549 cells
How it was run: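 A549 cells (K-Ras G12S) in RPMI-1640 with 10% heat-inactivated FBS, seeded e.g. 800 per well in standard or ultra-low-attachment 384-well plates, treated next day with a dilution series (e.g. 10-point, 3-fold). Viability by CellTiter-Glo luminescence about 6 days later; IC50 from four-parameter fit.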

K-Ras G12V = target: T2, K-Ras G12V (Homo sapiens, UniProt P01116, G12V); assay: HTRF resonance energy transfer assay, K-Ras G12V / SOS1 interaction; type: biochemical; details: HTRF assay of Example 5; read-out: IC50 against K-Ras G12V
T2 construct: made in house; host or cells: E. coli BL21 (DE3)
T2 sequence (P01116 1-188 isoform P01116-2 G12V): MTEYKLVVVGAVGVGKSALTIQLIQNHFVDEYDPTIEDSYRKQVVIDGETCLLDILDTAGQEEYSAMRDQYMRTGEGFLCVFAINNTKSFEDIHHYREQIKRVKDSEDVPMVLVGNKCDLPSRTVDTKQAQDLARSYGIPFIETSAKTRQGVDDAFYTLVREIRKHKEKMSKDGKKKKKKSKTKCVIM
How it was run: as §1

GP2D cells = assay: Ras cellular assay, growth of cells with K-Ras G12D mutation (CellTiter-Glo); type: cell-based; details: cell growth, Example 9, G12D mutation, read-out: IC50 against GP2D cells
K-Ras G12D = target: T3, K-Ras G12D (Homo sapiens, UniProt P01116, G12D); assay: HTRF resonance energy transfer assay, K-Ras G12D / SOS1 interaction; type: biochemical; details: HTRF assay of Example 5; read-out: IC50 against K-Ras G12D
T3 construct: made in house; host or cells: E. coli BL21 (DE3)
T3 sequence (P01116 1-188 isoform P01116-2 G12D): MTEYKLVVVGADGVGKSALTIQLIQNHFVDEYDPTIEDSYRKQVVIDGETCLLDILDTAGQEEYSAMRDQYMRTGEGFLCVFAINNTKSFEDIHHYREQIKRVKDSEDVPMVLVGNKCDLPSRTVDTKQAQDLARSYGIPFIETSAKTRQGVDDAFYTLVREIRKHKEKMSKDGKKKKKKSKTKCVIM
How it was run: as §1

K-Ras G12S = target: T4, K-Ras G12S (Homo sapiens, UniProt P01116, G12S); assay: HTRF resonance energy transfer assay, K-Ras G12S / SOS1 interaction; type: biochemical; details: HTRF assay of Example 5; read-out: IC50 against K-Ras G12S
T4 construct: made in house; host or cells: E. coli BL21 (DE3)
T4 sequence (P01116 1-188 isoform P01116-2 G12S): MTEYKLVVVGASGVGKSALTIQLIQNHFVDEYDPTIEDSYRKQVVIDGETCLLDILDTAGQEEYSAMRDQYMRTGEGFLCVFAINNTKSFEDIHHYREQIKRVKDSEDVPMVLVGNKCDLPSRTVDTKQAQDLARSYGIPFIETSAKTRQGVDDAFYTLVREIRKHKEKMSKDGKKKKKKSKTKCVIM
How it was run: as §1

SW620 cells = assay: Ras cellular assay, growth of cells with K-Ras G12V mutation (CellTiter-Glo); type: cell-based; details: Homo sapiens, SW-620; cell growth, Example 9, G12V mutation; read-out: IC50 against SW620 cells
How it was run: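 SW620 (K-Ras G12V) cells, e.g. 800/well in RPMI-1640 with 10% heat-inactivated FBS on standard or ultra-low attachment plates, were dosed the day after plating with e.g. a 10-point 3-fold series. Viability by CellTiter-Glo luminescence about 6 days later; IC50 from four-parameter fit.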

T1 sequence (P01116 1-188 isoform P01116-2): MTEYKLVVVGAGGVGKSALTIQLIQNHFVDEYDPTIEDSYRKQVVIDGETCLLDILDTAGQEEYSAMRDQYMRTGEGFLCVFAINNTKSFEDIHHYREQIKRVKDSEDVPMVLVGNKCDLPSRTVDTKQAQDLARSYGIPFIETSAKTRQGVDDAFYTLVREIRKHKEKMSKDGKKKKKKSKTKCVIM

Structure (SMILES) | IC50 (K-Ras WT) [nM] | IC50 (A549 cells) [nM] | IC50 (K-Ras G12V) [nM] | IC50 (GP2D cells) [nM] | IC50 (K-Ras G12D) [nM] | IC50 (K-Ras G12S) [nM] | IC50 (SW620 cells) [nM]
N#Cc1c(N)sc2c(F)ccc(-c3c(Cl)c4c5c(nc(OC[C@@]67CCCN6C[C@H](F)C7)nc5c3F)N(C3CCOC3)CC(CO)O4)c12 (stereo partly drawn) [Compound 681, 2-amino-4-(8-chloro-10-fluoro-2-(((2R,7aS)-2-fluorotetrahydro-1H-pyrrolizin-7a(5H)-yl)methoxy)-6-(hydroxymethyl)-4-(tetrahydrofuran-3-yl)-5,6-dihydro-4H-[1,4]oxazepino[5,6,7-de]quinazolin-9-yl)-7-fluorobenzo[b]thiophene-3-carbonitrile] | < 100 | < 5000 | < 100 | < 500 | < 100 | < 100 | < 5000
N#Cc1c(N)sc2c(F)ccc(-c3c(Cl)c4c5c(nc(OC[C@@]67CCCN6C[C@H](F)C7)nc5c3F)N(C3CCOC3)CCO4)c12 (stereo partly drawn) [Compound 688, 2-amino-4-(8-chloro-10-fluoro-2-(((2R,7aS)-2-fluorotetrahydro-1H-pyrrolizin-7a(5H)-yl)methoxy)-4-(tetrahydrofuran-3-yl)-5,6-dihydro-4H-[1,4]oxazepino[5,6,7-de]quinazolin-9-yl)-7-fluorobenzo[b]thiophene-3-carbonitrile] | < 100 | < 5000 | < 100 | < 500 | < 100 | < 100 | < 5000
N#Cc1c(N)sc2c(F)ccc(-c3c(Cl)c4c5c(nc(OC[C@@]67CCCN6C[C@H](F)C7)nc5c3F)N(C3CC5(CCN(C=O)C5)C3)CCO4)c12 (stereo partly drawn) [Compound 698, 2-amino-4-(8-chloro-10-fluoro-2-(((2R,7aS)-2-fluorotetrahydro-1H-pyrrolizin-7a(5H)-yl)methoxy)-4-(6-formyl-6-azaspiro[3.4]octan-2-yl)-5,6-dihydro-4H-[1,4]oxazepino[5,6,7-de]quinazolin-9-yl)-7-fluorobenzo[b]thiophene-3-carbonitrile] | < 100 | < 5000 | < 100 | < 500 | < 100 | < 100 | < 5000
N#Cc1c(N)sc2c(F)ccc(-c3c(Cl)c4c5c(nc(OC[C@@]67CCCN6C[C@H](F)C7)nc5c3F)N(C3CCN(C(=O)C[C@@H]5CCOC5)C3)CCO4)c12 (stereo partly drawn) [Compound 699, 2-amino-4-(8-chloro-10-fluoro-2-(((2R,7aS)-2-fluorotetrahydro-1H-pyrrolizin-7a(5H)-yl)methoxy)-4-(1-(2-((S)-tetrahydrofuran-3-yl)acetyl)pyrrolidin-3-yl)-5,6-dihydro-4H-[1,4]oxazepino[5,6,7-de]quinazolin-9-yl)-7-fluorobenzo[b]thiophene-3-carbonitrile] | < 100 | < 5000 | < 100 | < 500 | < 100 | < 100 | < 5000
N#CCC1COc2c(Cl)c(-c3ccc(F)c4sc(N)c(C#N)c34)c(F)c3nc(OC[C@@]45CCCN4C[C@H](F)C5)nc(c23)N1CC(F)F (stereo partly drawn) [Compound 700, 2-amino-4-(8-chloro-5-(cyanomethyl)-4-(2,2-difluoroethyl)-10-fluoro-2-(((2R,7aS)-2-fluorotetrahydro-1H-pyrrolizin-7a(5H)-yl)methoxy)-5,6-dihydro-4H-[1,4]oxazepino[5,6,7-de]quinazolin-9-yl)-7-fluorobenzo[b]thiophene-3-carbonitrile] | < 100 | < 5000 | < 100 | < 500 | < 100 | < 100 | < 5000
N#Cc1c(N)sc2c(F)ccc(-c3c(Cl)c4c5c(nc(OC[C@@]67CCCN6C[C@H](F)C7)nc5c3F)N(CC(F)F)C(CC(F)F)CO4)c12 (stereo partly drawn) [Compound 701, 2-amino-4-(8-chloro-4,5-bis(2,2-difluoroethyl)-10-fluoro-2-(((2R,7aS)-2-fluorotetrahydro-1H-pyrrolizin-7a(5H)-yl)methoxy)-5,6-dihydro-4H-[1,4]oxazepino[5,6,7-de]quinazolin-9-yl)-7-fluorobenzo[b]thiophene-3-carbonitrile] | < 100 | < 5000 | < 100 | < 500 | < 100 | < 100 | < 5000
N#CCCC1CN(CC(F)F)c2nc(OC[C@@]34CCCN3C[C@H](F)C4)nc3c(F)c(-c4ccc(F)c5sc(N)c(C#N)c45)c(Cl)c(c23)O1 (stereo partly drawn) [Compound 704, 2-amino-4-(8-chloro-6-(2-cyanoethyl)-4-(2,2-difluoroethyl)-10-fluoro-2-(((2R,7aS)-2-fluorotetrahydro-1H-pyrrolizin-7a(5H)-yl)methoxy)-5,6-dihydro-4H-[1,4]oxazepino[5,6,7-de]quinazolin-9-yl)-7-fluorobenzo[b]thiophene-3-carbonitrile] | < 100 | < 5000 | < 100 | < 500 | < 100 | < 100 | < 5000
N#Cc1c(N)sc2c(F)ccc(-c3c(Cl)c4c5c(nc(OC[C@@]67CCCN6C[C@H](F)C7)nc5c3F)N(C3CCN(C(=O)[C@H]5CCCO5)C3)CCO4)c12 (stereo partly drawn) [Compound 705, 2-amino-4-(8-chloro-10-fluoro-2-(((2R,7aS)-2-fluorotetrahydro-1H-pyrrolizin-7a(5H)-yl)methoxy)-4-(1-((R)-tetrahydrofuran-2-carbonyl)pyrrolidin-3-yl)-5,6-dihydro-4H-[1,4]oxazepino[5,6,7-de]quinazolin-9-yl)-7-fluorobenzo[b]thiophene-3-carbonitrile] | < 100 | < 5000 | < 100 | < 500 | < 100 | < 100 | < 5000
N#Cc1c(N)sc2c(F)ccc(-c3c(Cl)c4c5c(nc(OC[C@@]67CCCN6C[C@H](F)C7)nc5c3F)N(CCOC(F)F)CCO4)c12 [Compound 713, 2-amino-4-(8-chloro-4-(2-(difluoromethoxy)ethyl)-10-fluoro-2-(((2R,7aS)-2-fluorotetrahydro-1H-pyrrolizin-7a(5H)-yl)methoxy)-5,6-dihydro-4H-[1,4]oxazepino[5,6,7-de]quinazolin-9-yl)-7-fluorobenzo[b]thiophene-3-carbonitrile] | < 100 | < 5000 | < 100 | < 500 | < 100 | < 100 | < 5000
N#Cc1c(N)sc2c(F)ccc(-c3c(Cl)c4c5c(nc(OC[C@@]67CCCN6C[C@H](F)C7)nc5c3F)N([C@@H]3CCN(C=O)C3)CCO4)c12 [Compound 716, 2-amino-4-(8-chloro-10-fluoro-2-(((2R,7aS)-2-fluorotetrahydro-1H-pyrrolizin-7a(5H)-yl)methoxy)-4-((R)-1-formylpyrrolidin-3-yl)-5,6-dihydro-4H-[1,4]oxazepino[5,6,7-de]quinazolin-9-yl)-7-fluorobenzo[b]thiophene-3-carbonitrile] | < 100 | < 5000 | < 100 | < 500 | < 100 | < 100 | < 5000
N#Cc1c(N)sc2c(F)ccc(-c3c(Cl)c4c5c(nc(OC[C@@]67CCCN6C[C@H](F)C7)nc5c3F)N(C3CCC(F)(F)C3)CCO4)c12 (stereo partly drawn) [Compound 717, 2-amino-4-(8-chloro-4-(3,3-difluorocyclopentyl)-10-fluoro-2-(((2R,7aS)-2-fluorotetrahydro-1H-pyrrolizin-7a(5H)-yl)methoxy)-5,6-dihydro-4H-[1,4]oxazepino[5,6,7-de]quinazolin-9-yl)-7-fluorobenzo[b]thiophene-3-carbonitrile] | < 100 | < 5000 | < 100 | < 500 | < 100 | < 100 | < 5000
N#Cc1c(N)sc2c(F)ccc(-c3c(Cl)c4c5c(nc(OC[C@@]67CCCN6C[C@H](F)C7)nc5c3F)N(C3CCC(C(F)F)C3)CCO4)c12 (stereo partly drawn) [Compound 718, 2-amino-4-(8-chloro-4-(3-(difluoromethyl)cyclopentyl)-10-fluoro-2-(((2R,7aS)-2-fluorotetrahydro-1H-pyrrolizin-7a(5H)-yl)methoxy)-5,6-dihydro-4H-[1,4]oxazepino[5,6,7-de]quinazolin-9-yl)-7-fluorobenzo[b]thiophene-3-carbonitrile] | < 100 | < 5000 | < 100 | < 500 | < 100 | < 100 | < 5000
